Measurements from ChEMBL document CHEMBL2321745, “Synthesis and biological evaluation of substituted benzoxazoles as inhibitors of mPGES-1: use of a conformation-based hypothesis to facilitate compound design” (Bioorg Med Chem Lett, 2013).

Tests used:
[1] = Mean residence time in Sprague-Dawley rat at 1 mg/kg, po; type: ADME, organism-based; design: dose 1 mg/kg, route oral; settings: in vivo
[2] = Clearance in Sprague-Dawley rat at 1 mg/kg, iv; type: ADME, organism-based; design: dose 1 mg/kg, route intravenous; settings: in vivo
[3] = Volume of distribution at steady state in Sprague-Dawley rat at 1 mg/kg, iv; type: ADME, organism-based; design: dose 1 mg/kg, route intravenous; settings: in vivo, read-out: Vdss
[4] = Half life in Sprague-Dawley rat at 1 mg/kg, po; type: ADME, organism-based; design: dose 1 mg/kg, route oral; settings: in vivo
[5] = Apparent intrinsic clearance in human liver microsomes; type: ADME, Microsome; settings: read-out: CLH(app)
[6] = Oral bioavailability in Sprague-Dawley rat at 1 mg/kg; type: ADME, organism-based; settings: in vivo
[7] = AUC (infinity) in Sprague-Dawley rat at 1 mg/kg, po; type: ADME, organism-based; design: time infinity, dose 1 mg/kg, route oral; settings: plasma
[8] = Cmax in Sprague-Dawley rat at 1 mg/kg, po; type: ADME, organism-based; design: dose 1 mg/kg, route oral; settings: in vivo

Structure (SMILES) | MRT [1] [h] | clearance [2] [mL/min/kg] | Vd [3] [L/kg] | half-life [4] [min] | CLint scaled [5] [mL/min/kg] | bioavailability [6] [%] | AUC(0-inf) [7] [µM·h] | Cmax [8] [nM]
Cc1cc2oc(N3CCC(C(=O)N[C@H]4CCC[C@H](C(C)(C)O)C4)CC3)nc2cc1Cl | 0.78 | 44 | 2 | 32.4 | 223 | 15 | – | –
CC(C)(O)[C@H]1CCC[C@H](NC(=O)C2CCN(c3nc4cc(Cl)c(C(F)(F)F)cc4o3)CC2)C1 | 3.6 | 30 | 4.6 | 324 | 98 | 38 | 0.45 | 120
CS(=O)(=O)[C@H]1CCC[C@H](NC(=O)C2CCN(c3nc4cc(Cl)c(C(F)(F)F)cc4o3)CC2)C1 | 6.5 | 9.4 | 2.1 | 1020 | 4.6 | 30 | 1.1 | 150
O=C(N[C@H]1CCC[C@H](CO)C1)C1CCN(c2nc3cc(Cl)c(-c4ccc(Cl)cc4)cc3o2)CC1 | 6.8 | – | 2.9 | – | – | 42 | 1.9 | 200
